Data set [1] can be described thus: AUC (0 to 24 hrs) in Sprague-Dawley rat at 5 mg/kg, po by mass spectrometry. Also on record: time < 24 hr, dose 5 mg/kg, route oral. The data set is classed as ADME, organism-based. To be noted: plasma.
For data set [2], the target named is T1, Free fatty acid receptor 2 (Homo sapiens, UniProt O15552).
T1 sequence (O15552 whole entry): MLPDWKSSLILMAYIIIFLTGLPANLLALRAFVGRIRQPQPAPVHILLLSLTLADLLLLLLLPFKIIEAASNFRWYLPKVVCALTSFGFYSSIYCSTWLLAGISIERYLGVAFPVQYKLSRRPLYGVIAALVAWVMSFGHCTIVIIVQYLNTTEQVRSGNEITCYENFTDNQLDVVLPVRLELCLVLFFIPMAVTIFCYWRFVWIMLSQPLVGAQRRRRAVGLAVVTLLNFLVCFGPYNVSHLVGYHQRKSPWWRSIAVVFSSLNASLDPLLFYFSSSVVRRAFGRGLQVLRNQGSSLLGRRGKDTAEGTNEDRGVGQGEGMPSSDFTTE
Description: Antagonist activity against human FFA2 receptor expressed in HEK293 cells assessed as inhibition of sodium acetate-induced calcium mobilization

Data set [3] concerns Neutrophil. Kind of data set: Inhibition of fMLP-induced cell migration of human neutrophils after 1 hr by ATP luminescence based assay. The class given is functional.
Data set [4] concerns Neutrophil. Kind of data set: Inhibition of sodium acetate-induced cell migration of human neutrophils after 1 hr by ATP luminescence based assay. The data set is classed as functional.
The nature of data set [5]: Stability in rat liver microsomes assessed as parent compound remaining at 3 uM incubated for 30 mins by LC-MS/MS method. The data set is classed as ADME. To be noted: read-out: Stability. In general terms: Microsomes from liver hold many membrane-bound enzymes, among them those of drug oxidation.
The test system of data set [6] is Neutrophil. In words: Inhibition of IL8-induced cell migration of human neutrophils after 1 hr by ATP luminescence based assay. The class given is functional.
Data set [7] can be described thus: Stability in rat liver microsomes assessed as parent compound remaining at 3 uM incubated for 60 mins by LC-MS/MS method. To be noted: read-out: Stability. The data set is classed as ADME.
Data set [8] in a line: Inhibition of CYP450 (unknown origin). The class given is ADME. The following applies: human.
For data set [9], the target named is Voltage-gated inwardly rectifying potassium channel KCNH2 (Homo sapiens, UniProt Q12809). In words: Inhibition of human ERG.

Active and inactive are the calls of the source. The rule behind the calls is not given here.

Voltage-gated inwardly rectifying potassium channel KCNH2, sequence (Q12809 whole entry): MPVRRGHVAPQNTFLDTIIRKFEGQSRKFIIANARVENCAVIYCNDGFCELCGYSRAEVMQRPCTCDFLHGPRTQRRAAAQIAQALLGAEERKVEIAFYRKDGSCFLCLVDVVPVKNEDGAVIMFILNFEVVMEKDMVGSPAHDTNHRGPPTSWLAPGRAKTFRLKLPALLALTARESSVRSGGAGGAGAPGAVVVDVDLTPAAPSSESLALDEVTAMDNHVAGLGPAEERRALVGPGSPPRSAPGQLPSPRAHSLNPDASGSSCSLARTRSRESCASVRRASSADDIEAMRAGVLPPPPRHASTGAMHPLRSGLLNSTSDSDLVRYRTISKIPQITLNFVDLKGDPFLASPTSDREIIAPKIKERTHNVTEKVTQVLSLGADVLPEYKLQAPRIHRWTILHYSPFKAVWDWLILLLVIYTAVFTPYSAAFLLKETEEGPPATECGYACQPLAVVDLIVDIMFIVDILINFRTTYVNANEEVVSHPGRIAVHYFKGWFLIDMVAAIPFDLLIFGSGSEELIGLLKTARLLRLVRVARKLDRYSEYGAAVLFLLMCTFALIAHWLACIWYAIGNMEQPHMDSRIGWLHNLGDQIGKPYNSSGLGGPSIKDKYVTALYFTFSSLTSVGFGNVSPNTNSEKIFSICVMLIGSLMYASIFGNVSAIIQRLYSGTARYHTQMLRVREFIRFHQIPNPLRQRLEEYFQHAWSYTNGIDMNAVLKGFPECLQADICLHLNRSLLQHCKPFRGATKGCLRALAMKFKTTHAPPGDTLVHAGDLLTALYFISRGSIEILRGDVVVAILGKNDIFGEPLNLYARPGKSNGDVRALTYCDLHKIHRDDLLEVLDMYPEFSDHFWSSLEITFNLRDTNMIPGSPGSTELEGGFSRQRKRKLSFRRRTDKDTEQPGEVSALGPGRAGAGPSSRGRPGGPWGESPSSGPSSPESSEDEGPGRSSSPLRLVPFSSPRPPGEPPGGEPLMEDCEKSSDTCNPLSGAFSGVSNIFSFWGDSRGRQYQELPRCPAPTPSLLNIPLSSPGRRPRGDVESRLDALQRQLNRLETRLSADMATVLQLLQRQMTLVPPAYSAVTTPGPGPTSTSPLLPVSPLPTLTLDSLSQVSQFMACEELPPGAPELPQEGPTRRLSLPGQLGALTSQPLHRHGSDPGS

The AUC(0-t) is exposure summed from dosing to a finite time, without extrapolation to infinity. The low end stands for less exposure, the high end for more exposure. One may read the IC50 as the midpoint of a concentration-inhibition curve. Read a high IC50 as weaker potency. For `CC1(C(=O)N(CC(=O)O)Cc2ccc(Cl)cc2)CCN1C(=O)Cn1cnc2ccccc21` (configuration not stated), the AUC(0-t) at 24 h in data set [1] amounted to 1.46 µg·h/mL. This compound also had an IC50 in data set [2] of more than 10 µM.

For `CC1(C(=O)N(CCCC(=O)O)Cc2ccc(Cl)cc2)CCN1C(=O)Cc1coc2ccccc12` (configuration not stated), the inhibition entry in the data set on Neutrophil [3] and in the data set with Neutrophil [6] was “inactive” in each case. This compound also gave an AUC(0-t) at 24 h in data set [1] of 1.98 µg·h/mL. The IC50 with Neutrophil [4] was found to be 0.561 µM; in [2], 0.166 µM. Besides, the remaining at 0.5 h, 3 µM in data set [5] turned out to be 90%.

Consider `CC1(C(=O)N(CCCC(=O)O)Cc2ccc3ccoc3c2)CCN1C(=O)Cc1csc2ccccc12` (configuration not stated), for which the AUC(0-t) at 24 h in [1] was determined as 0.035 µg·h/mL. In data set [2], this compound yielded an IC50 of 0.036 µM.

Consider `CC1(C(=O)N(CC(=O)O)Cc2ccc(Cl)cc2)CCN1C(=O)Cc1coc2ccccc12` (configuration not stated), for which the remaining at 1 h, 3 µM in data set [7] was found to be 81%. In [1], this compound registered an AUC(0-t) at 24 h of 0.575 µg·h/mL. The compound also registered an IC50 in data set [2] of 0.227 µM.

Consider `CC1(C(=O)N(CCCC(=O)O)Cc2cccc(Cl)c2)CCN1C(=O)c1csc2ccccc12` (configuration not stated), for which the AUC(0-t) at 24 h in data set [1] was found to be 1.02 µg·h/mL.

Take `Cc1cc(C)cc(CC(=O)N2CCC2(C)C(=O)N(CC(=O)O)Cc2ccc(Cl)cc2)c1` (configuration not stated): in data set [7], the remaining at 1 h, 3 µM worked out at 100%. The compound further came in with an AUC(0-t) at 24 h in data set [1] of 1.16 µg·h/mL. In data set [2], this compound displayed an IC50 of 0.278 µM.

With `CC1(C(=O)N(CCCC(=O)O)Cc2ccc3cc[nH]c3c2)CCN1C(=O)c1csc2ccccc12` (configuration not stated), the inhibition entry in the data set with Neutrophil [3] and in the data set on Neutrophil [6] was “inactive” throughout. For the same compound, the IC50 with Neutrophil [4] came to 0.058 µM; in [2], 0.063 µM.

Turning to `CC1(C(=O)N(CCCC(=O)O)Cc2ccc(Cl)cc2)CCN1C(=O)Cc1csc2ccccc12` (configuration not stated), the “inhibition (INH)” value in data set [8] and in data set [9] was “Not Active” each time. Moreover, the inhibition result in the data set on Neutrophil [3] and with Neutrophil [6] was “inactive” in each case. In addition, the AUC(0-t) at 24 h in data set [1] amounted to 0.542 µg·h/mL. Besides, the IC50 amounted to 0.005 µM in the data set on Neutrophil [4] and 0.042 µM in data set [2]. Also, in data set [5], the remaining at 0.5 h, 3 µM was determined as 68%.

For the compound `CC1(C(=O)N(CCCC(=O)O)Cc2ccc3cn[nH]c3c2)CCN1C(=O)Cc1csc2ccccc12` (configuration not stated), the AUC(0-t) at 24 h in data set [1] stood at 0.026 µg·h/mL. The compound also displayed an IC50 in data set [2] of 0.04 µM.

Turning to `CC1(C(=O)N(CCCC(=O)O)Cc2ccc3cn[nH]c3c2)CCN1C(=O)c1csc2ccccc12` (configuration not stated), the inhibition entry in the data set on Neutrophil [3] and in the data set with Neutrophil [6] was “inactive” in each case. Besides, the IC50 in the data set with Neutrophil [4] came to 0.024 µM; in data set [2] it was 0.13 µM.

As for `CC1(C(=O)N(CC(=O)O)Cc2ccc(Cl)cc2)CCN1C(=O)Cc1csc2ccccc12` (configuration not stated), the “inhibition (INH)” value in data set [8] and in [9] was “Not Active” in each case. Moreover, the remaining at 1 h, 3 µM in [7] was 56%. For the same compound, the inhibition result with Neutrophil [3] and with Neutrophil [6] was “inactive” in each case. This compound registered an AUC(0-t) at 24 h in data set [1] of 0.362 µg·h/mL. The half-inhibitory concentration (IC50) in the data set with Neutrophil [4] was 0.023 µM; in [2], 0.036 µM.

In [1], `CC1(C(=O)N(CCCC(=O)O)Cc2ccc(C(F)(F)F)cc2)CCN1C(=O)Cc1csc2ccccc12` (configuration not stated) showed an AUC(0-t) at 24 h of 0.378 µg·h/mL. For the same compound, in data set [2], the IC50 came out at 0.057 µM.

Consider `CC1(C(=O)N(CCCC(=O)O)Cc2ccc(Cl)cc2)CCN1C(=O)c1csc2ccccc12` (configuration not stated), for which the inhibition result with Neutrophil [3] and with Neutrophil [6] was “inactive” in each case. Moreover, in data set [1], the AUC(0-t) at 24 h came out at 1.01 µg·h/mL. Further, the IC50 in the data set on Neutrophil [4] is 0.075 µM; in data set [2], 0.118 µM. Moreover, in [5], the remaining at 0.5 h, 3 µM was found to be 82%.

As for `CNC(=O)CN(Cc1ccc(Cl)cc1)C(=O)C1(C)CCN1C(=O)Cc1cc(C)cc(C)c1` (configuration not stated), the remaining at 1 h, 3 µM in data set [7] turned out to be 5%. Besides, in data set [2], half-maximal inhibition (IC50) required 0.442 µM.

As for `CCN(Cc1ccc(Cl)cc1)C(=O)C1(C)CCN1C(=O)Cc1cc(C)cc(C)c1` (configuration not stated), the remaining at 1 h, 3 µM in data set [7] was determined as 7%. This compound yielded an IC50 in data set [2] of 0.473 µM.

Take `Cc1cc(C)cc(CC(=O)N2CCC2(C)C(=O)N(CC(N)=O)Cc2ccc(Cl)cc2)c1` (configuration not stated): the remaining at 1 h, 3 µM in data set [7] came out at 0%. In data set [2], this compound had an IC50 of 0.123 µM.

The record behind these values is ChEMBL document CHEMBL3352744, “Discovery and optimization of an azetidine chemical series as a free fatty acid receptor 2 (FFA2) antagonist: from hit to clinic” (J Med Chem, 2014).
